Measured values as given in article PMC3427316 (PLoS ONE, 2012).

Tests used:
[1] = target: NA of D0 isolate A/Paris/7976/2010 (223I 100%, 275H 100%) (Influenza A virus, UniProt V9TJZ0); format: biochemical, influenza A(H1N1)pdm09 virus; conditions: read-out: Ki +/− SD
[2] = system: H1N1pdm09 virus; conditions: human, in vivo

Row | SMILES | Ki [1] [nM] | impact on viral shedding [2] | symptoms [2]
1 | CCC(CC)O[C@@H]1C=C(C(=O)O)C[C@H](N)[C@H]1NC(C)=O [OC, oseltamivir carboxylate] | 0.28 |  | 
2 | CC(=O)N[C@H]1[C@H]([C@H](O)[C@H](O)CO)OC(C(=O)O)=C[C@@H]1N=C(N)N [ZAN, zanamivir] |  | no impact | did not improve
